Laboratory results as given in paper PMC6220303 (EMBO Molecular Medicine, 2018).

What was measured:
[1] = target: Monoamine transporter VMAT2 (Oryctolagus cuniculus, UniProt G1T2K3); assay: Receptor panel binding; set-up: species or system Rabbit; details: read-out: Inhibition at 10 µM
Experimental: Cellular Aβ release assays were done in CHO cells stably transfected with human wild‐type and human APP were done as described (Neumann et al, 2015). Determinations of logD, pKa, and binding to brain homogenates were done internally at Novartis, Basel. Plasma protein binding was determined by equilibrium dialysis using diluted plasma from the corresponding species. MDR‐1‐MDCK cells were obtained from Prof. A. Berns, Netherlands Cancer Institute, Amsterdam NL, and bi‐directional transport measurements were done as described (Rueeger et al, 2011). Receptor binding assays were done against an internal receptor panel and externally at Ricerca Biosciences, Peitou, Taiwan. In vitro binding and cellular patch clamp assays for hERG were done at Preclinical Safety, Novartis, Basel.

[2] = tested on: healthy participants ≥ 60 years; assay: Adverse events after 3 months daily dosing (Appendix Table S8); format: in vivo, human
Experimental: For further details, see the Appendix Table S10 in Appendix and the accompanying clinical protocols synopsis (Appendix Table S11).
Randomized, double-blind, placebo-controlled, parallel-group study to assess the safety, Multiple-dose over 13-tolerability, pharmacokinetics ≥ 60 yrs 100 / 24 weeks (2, 10, 35 or 85 mg and pharmacodynamics of q.d. CNP520 vs. placebo) multiple oral doses of CNP520 in healthy elderly participants
Title A randomized, double-blind, placebo-controlled, parallel-group study to assess the safety, tolerability, pharmacokinetics and pharmacodynamics of multiple oral doses of CNP520 in healthy elderly subjects
Brief title Dose-ranging safety and tolerability study in subjects ≥60 years of age Sponsor and Clinical Novartis
Study type Interventional […]
rationale months to allow initiation future long-term efficacy trials in patients with Alzheimer’s disease (AD) or in subjects at risk of AD. In addition, data relevant for Pharmacokinetic/Pharmacodynamic modeling will be obtained in order to define the target dose in subsequent efficacy studies.
Primary Objective(s) To determine the safety and tolerability of multiple, once-daily oral doses of […]
Secondary • To assess the change from baseline of CSF Aβ concentrations (Aβ1-Objectives 38; Aβ1-40; Aβ1-42) in healthy elderly subjects over 13 weeks treatment with CNP520 as compared to placebo

[3] = tested on: CSF Aβ; assay: Human CSF Aβ after 2-week once-daily dosing; format: in vivo; details: 2 weeks, 24 h after last dose, mean ± SEM
Experimental: (A) Changes in Aβ40 relative to baseline values. (B) Changes in sAPPβ relative to baseline values.
CSF was sampled by single lumbar punctures at baseline and 24 h after the last dose, and the change in Aβ concentrations from baseline to end of treatment was determined.
Human CSF was collected from an indwelling spinal catheter inserted into the lower spinal canal (in the single ascending dose (SAD) PD first in human (FIH) study) or by a lumbar puncture (in the multiple ascending dose (MAD) PD Phase I study and Phase IIa study), and by trained personnel at the site and as per their standard operating procedure (SOP). CSF Aβ38, Aβ40, Aβ42, sAPPα, and sAPPβ were quantified in human CSF with 0.2% (v/v) Tween®‐20 using validated sandwich‐based multiplexed electrochemiluminescence methods (MesoScale Discovery, […], MD, USA).

Monoamine transporter VMAT2, sequence (G1T2K3 1-509): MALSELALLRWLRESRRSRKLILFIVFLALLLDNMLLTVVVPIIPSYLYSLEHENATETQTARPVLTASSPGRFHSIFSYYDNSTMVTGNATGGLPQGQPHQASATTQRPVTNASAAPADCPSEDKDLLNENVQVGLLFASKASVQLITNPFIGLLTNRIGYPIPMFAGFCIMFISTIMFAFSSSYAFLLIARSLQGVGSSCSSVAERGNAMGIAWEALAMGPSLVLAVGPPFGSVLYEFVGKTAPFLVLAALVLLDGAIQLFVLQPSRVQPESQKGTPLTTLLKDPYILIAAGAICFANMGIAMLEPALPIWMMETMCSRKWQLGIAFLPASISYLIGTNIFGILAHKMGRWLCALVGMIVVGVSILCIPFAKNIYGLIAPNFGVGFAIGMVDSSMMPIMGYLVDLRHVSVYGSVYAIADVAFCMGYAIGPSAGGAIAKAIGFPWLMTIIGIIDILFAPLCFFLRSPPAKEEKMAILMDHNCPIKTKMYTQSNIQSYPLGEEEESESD

Compound: C[C@@]1(c2nc(NC(=O)c3ncc(C(F)(F)F)cc3Cl)ccc2F)CO[C@@](C)(C(F)(F)F)C(N)=N1 [CNP520]
- inhibition at 10 µM [1]: 79%
- AE incidence: Blood and lymphatic system disorders ([2]; 2 mg daily, N = 25): 0 (0.0) n (%)
- AE incidence: Ear and labyrinth disorders ([2]; 2 mg daily, N = 25): 0 (0.0) n (%)
- AE incidence: Eye disorders ([2]; 2 mg daily, N = 25): 2 (8.0) n (%)
- AE incidence: Gastrointestinal disorders ([2]; 2 mg daily, N = 25): 7 (28.0) n (%)
- AE incidence: General disorders and administration site conditions ([2]; 2 mg daily, N = 25): 1 (4.0) n (%)
- AE incidence: Immune system disorders ([2]; 2 mg daily, N = 25): 0 (0.0) n (%)
- AE incidence: Infections and infestations ([2]; 2 mg daily, N = 25): 3 (12.0) n (%)
- AE incidence: Injury, poisoning and procedural complications ([2]; 2 mg daily, N = 25): 7 (28.0) n (%)
- AE incidence: Investigations ([2]; 2 mg daily, N = 25): 2 (8.0) n (%)
- AE incidence: Metabolism and nutrition disorders ([2]; 2 mg daily, N = 25): 1 (4.0) n (%)
- AE incidence: Neoplasms benign, malignant & unspecified (incl. cysts and polyps) ([2]; 2 mg daily, N = 25): 1 (4.0) n (%)
- AE incidence: Nervous system disorders ([2]; 2 mg daily, N = 25): 13 (52.0) n (%)
- AE incidence: Psychiatric disorders ([2]; 2 mg daily, N = 25): 1 (4.0) n (%)
- AE incidence: Renal and urinary disorders ([2]; 2 mg daily, N = 25): 0 (0.0) n (%)
- AE incidence: Reproductive system and breast disorders ([2]; 2 mg daily, N = 25): 0 (0.0) n (%)
- AE incidence: Respiratory, thoracic and mediastinal disorders ([2]; 2 mg daily, N = 25): 6 (24.0) n (%)
- AE incidence: Skin and subcutaneous tissue disorders ([2]; 2 mg daily, N = 25): 3 (12.0) n (%)
- AE incidence: Vascular disorders ([2]; 2 mg daily, N = 25): 0 (0.0) n (%)
- Participants with at least one AE ([2]; 2 mg daily, N = 25): 19 (76.0) n (%)
- AE incidence: Blood and lymphatic system disorders ([2]; 10 mg daily, N = 25): 0 (0.0) n (%)
- AE incidence: Ear and labyrinth disorders ([2]; 10 mg daily, N = 25): 1 (4.0) n (%)
- AE incidence: Eye disorders ([2]; 10 mg daily, N = 25): 5 (20.0) n (%)
- AE incidence: Gastrointestinal disorders ([2]; 10 mg daily, N = 25): 9 (36.0) n (%)
- AE incidence: General disorders and administration site conditions ([2]; 10 mg daily, N = 25): 2 (8.0) n (%)
- AE incidence: Immune system disorders ([2]; 10 mg daily, N = 25): 0 (0.0) n (%)
- AE incidence: Infections and infestations ([2]; 10 mg daily, N = 25): 10 (40.0) n (%)
- AE incidence: Injury, poisoning and procedural complications ([2]; 10 mg daily, N = 25): 11 (44.0) n (%)
- AE incidence: Investigations ([2]; 10 mg daily, N = 25): 0 (0.0) n (%)
- AE incidence: Metabolism and nutrition disorders ([2]; 10 mg daily, N = 25): 1 (4.0) n (%)
- AE incidence: Neoplasms benign, malignant & unspecified (incl. cysts and polyps) ([2]; 10 mg daily, N = 25): 1 (4.0) n (%)
- AE incidence: Nervous system disorders ([2]; 10 mg daily, N = 25): 10 (40.0) n (%)
- AE incidence: Psychiatric disorders ([2]; 10 mg daily, N = 25): 2 (8.0) n (%)
- AE incidence: Renal and urinary disorders ([2]; 10 mg daily, N = 25): 2 (8.0) n (%)
- AE incidence: Reproductive system and breast disorders ([2]; 10 mg daily, N = 25): 2 (8.0) n (%)
- AE incidence: Respiratory, thoracic and mediastinal disorders ([2]; 10 mg daily, N = 25): 6 (24.0) n (%)
- AE incidence: Skin and subcutaneous tissue disorders ([2]; 10 mg daily, N = 25): 7 (28.0) n (%)
- AE incidence: Vascular disorders ([2]; 10 mg daily, N = 25): 2 (8.0) n (%)
- Participants with at least one AE ([2]; 10 mg daily, N = 25): 22 (88.0) n (%)
- AE incidence: Blood and lymphatic system disorders ([2]; 35 mg daily, N = 26): 1 (3.8) n (%)
- AE incidence: Ear and labyrinth disorders ([2]; 35 mg daily, N = 26): 1 (3.8) n (%)
- AE incidence: Eye disorders ([2]; 35 mg daily, N = 26): 0 (0.0) n (%)
- AE incidence: Gastrointestinal disorders ([2]; 35 mg daily, N = 26): 9 (34.6) n (%)
- AE incidence: General disorders and administration site conditions ([2]; 35 mg daily, N = 26): 4 (15.4) n (%)
- AE incidence: Immune system disorders ([2]; 35 mg daily, N = 26): 0 (0.0) n (%)
- AE incidence: Infections and infestations ([2]; 35 mg daily, N = 26): 6 (23.1) n (%)
- AE incidence: Injury, poisoning and procedural complications ([2]; 35 mg daily, N = 26): 10 (38.5) n (%)
- AE incidence: Investigations ([2]; 35 mg daily, N = 26): 1 (3.8) n (%)
- AE incidence: Metabolism and nutrition disorders ([2]; 35 mg daily, N = 26): 0 (0.0) n (%)
- AE incidence: Neoplasms benign, malignant & unspecified (incl. cysts and polyps) ([2]; 35 mg daily, N = 26): 0 (0.0) n (%)
- AE incidence: Nervous system disorders ([2]; 35 mg daily, N = 26): 9 (34.6) n (%)
- AE incidence: Psychiatric disorders ([2]; 35 mg daily, N = 26): 1 (3.8) n (%)
- AE incidence: Renal and urinary disorders ([2]; 35 mg daily, N = 26): 2 (7.7) n (%)
- AE incidence: Reproductive system and breast disorders ([2]; 35 mg daily, N = 26): 0 (0.0) n (%)
- AE incidence: Respiratory, thoracic and mediastinal disorders ([2]; 35 mg daily, N = 26): 5 (19.2) n (%)
- AE incidence: Skin and subcutaneous tissue disorders ([2]; 35 mg daily, N = 26): 2 (7.7) n (%)
- AE incidence: Vascular disorders ([2]; 35 mg daily, N = 26): 0 (0.0) n (%)
- Participants with at least one AE ([2]; 35 mg daily, N = 26): 21 (80.8) n (%)
- AE incidence: Blood and lymphatic system disorders ([2]; 85 mg daily, N = 24): 0 (0.0) n (%)
- AE incidence: Ear and labyrinth disorders ([2]; 85 mg daily, N = 24): 1 (4.2) n (%)
- AE incidence: Eye disorders ([2]; 85 mg daily, N = 24): 4 (16.7) n (%)
- AE incidence: Gastrointestinal disorders ([2]; 85 mg daily, N = 24): 4 (16.7) n (%)
- AE incidence: General disorders and administration site conditions ([2]; 85 mg daily, N = 24): 5 (20.8) n (%)
- AE incidence: Immune system disorders ([2]; 85 mg daily, N = 24): 1 (4.2) n (%)
- AE incidence: Infections and infestations ([2]; 85 mg daily, N = 24): 4 (16.7) n (%)
- AE incidence: Injury, poisoning and procedural complications ([2]; 85 mg daily, N = 24): 8 (33.3) n (%)
- AE incidence: Investigations ([2]; 85 mg daily, N = 24): 1 (4.2) n (%)
- AE incidence: Metabolism and nutrition disorders ([2]; 85 mg daily, N = 24): 0 (0.0) n (%)
- AE incidence: Neoplasms benign, malignant & unspecified (incl. cysts and polyps) ([2]; 85 mg daily, N = 24): 0 (0.0) n (%)
- AE incidence: Nervous system disorders ([2]; 85 mg daily, N = 24): 8 (33.3) n (%)
- AE incidence: Psychiatric disorders ([2]; 85 mg daily, N = 24): 2 (8.3) n (%)
- AE incidence: Renal and urinary disorders ([2]; 85 mg daily, N = 24): 1 (4.2) n (%)
- AE incidence: Reproductive system and breast disorders ([2]; 85 mg daily, N = 24): 0 (0.0) n (%)
- AE incidence: Respiratory, thoracic and mediastinal disorders ([2]; 85 mg daily, N = 24): 5 (20.8) n (%)
- AE incidence: Skin and subcutaneous tissue disorders ([2]; 85 mg daily, N = 24): 6 (25.0) n (%)
- AE incidence: Vascular disorders ([2]; 85 mg daily, N = 24): 1 (4.2) n (%)
- Participants with at least one AE ([2]; 85 mg daily, N = 24): 18 (75.0) n (%)
- AE incidence: Blood and lymphatic system disorders ([2]; all doses, N = 100): 1 (1.0) n (%)
- AE incidence: Ear and labyrinth disorders ([2]; all doses, N = 100): 3 (3.0) n (%)
- AE incidence: Eye disorders ([2]; all doses, N = 100): 11 (11.0) n (%)
- AE incidence: Gastrointestinal disorders ([2]; all doses, N = 100): 29 (29.0) n (%)
- AE incidence: General disorders and administration site conditions ([2]; all doses, N = 100): 12 (12.0) n (%)
- AE incidence: Immune system disorders ([2]; all doses, N = 100): 1 (1.0) n (%)
- AE incidence: Infections and infestations ([2]; all doses, N = 100): 23 (23.0) n (%)
- AE incidence: Injury, poisoning and procedural complications ([2]; all doses, N = 100): 36 (36.0) n (%)
- AE incidence: Investigations ([2]; all doses, N = 100): 4 (4.0) n (%)
- AE incidence: Metabolism and nutrition disorders ([2]; all doses, N = 100): 2 (2.0) n (%)
- AE incidence: Neoplasms benign, malignant & unspecified (incl. cysts and polyps) ([2]; all doses, N = 100): 2 (2.0) n (%)
- AE incidence: Nervous system disorders ([2]; all doses, N = 100): 40 (40.0) n (%)
- AE incidence: Psychiatric disorders ([2]; all doses, N = 100): 6 (6.0) n (%)
- AE incidence: Renal and urinary disorders ([2]; all doses, N = 100): 5 (5.0) n (%)
- AE incidence: Reproductive system and breast disorders ([2]; all doses, N = 100): 2 (2.0) n (%)
- AE incidence: Respiratory, thoracic and mediastinal disorders ([2]; all doses, N = 100): 22 (22.0) n (%)
- AE incidence: Skin and subcutaneous tissue disorders ([2]; all doses, N = 100): 18 (18.0) n (%)
- AE incidence: Vascular disorders ([2]; all doses, N = 100): 3 (3.0) n (%)
- Participants with at least one AE ([2]; all doses, N = 100): 80 (80.0) n (%)
- AE incidence: Musculoskeletal and connective tissue disorders ([2]; human, in vivo): 27 (27.0) n (%)
- Aβ reduction in CSF from baseline to end of treatment ([3]; 10 mg daily dose): 59.8 ± 9.88%
- Aβ reduction in CSF from baseline to end of treatment ([3]; 300 mg daily dose): 93.9 ± 2.09%
